Data: patent publication US6626122B2, “Deactivatable biocides in ballast water” (Chevron U.S.A. Inc, priority 2001, dated 2003)

Assays:
bacterial inoculum [1] = test: Evaluation of biocides: inhibition of growth on FT diesel and ALAD diesel; type: cell-based, alkane degrading organisms; as to Growth, Test Results on ALAD Diesel Fuel: key: −: No Growth; +: Growth (White Unless Otherwise Indicated); as to Growth, Test Results on Fischer-Tropsch Diesel Fuel: key: −: No Growth; +: Growth (White Unless Otherwise Indicated)
Experimental: The ability of biocides to inhibit growth on a FT diesel and a low aromatics diesel fuel from Example 1 was investigated.
Test Conditions: 90 ml of growth media and 10 ml of either FT diesel or low sulfur (ALAD) diesel was added to 250 ml flasks. […] In addition to the 2 alkynes, glutaraldehyde (glutaric dialdehyde 50%), was tested. The following summarizes the test conditions:
100 ppm inhibitor (on a total test volume basis or 1000 ppm in diesel)
1% inhibitor (on a total test volume basis or 10% in diesel).
After inoculation, the flasks were place on a shaker-table (135 rpm) at room temperature and observed daily.

bacterial inoculum [2] = test: Neutralization of biocides with monoethanolamine; type: cell-based; settings: for Growth, Neutralization of Biocides with MEA: minimal media:FT diesel 10:1; for onset of microbial growth (delayed from 3 days): no MEA
Experimental: In all experiments, a 10:1 ratio of minimal media to Fischer-Tropsch diesel fuel were prepared and evaluated in 250 ml flasks.
In addition to these experiments, several controls were run without Glutaraldehyde as follows: […]

in vivo = settings: Cyprinodon variegatus (sheepshead minnow, larval)
Experimental: (§1) […]. EPA/600/4-90/027F Washington, D.C.) conducted at Pacific Eco-Risk Laboratories, Martinez, Calif.
(§2) LOEC is the Lowest Observable Effect Concentration and is defined as the minimum concentration where mortality is observed for the test species. […] LC-50, the concentration that will cause mortality of 50% of the organisms tested within 96 h, is a calculated value based on all observations.
(§3) The solutions were mixed for 48 hours prior to the start of the bioassays. The solutions were diluted to perform bioassays at starting glutaraldehyde concentrations of 100, 50, 37.5, 25, and 10.5 mg/L. The results are summarized in Table X.

[3] = test system: Larval Sheepshead Minnow (Cyprinodon variegatus); test: in vivo; settings: Cyprinodon variegatus (sheepshead minnow), 96 h
Experimental: as §1, §2, §3

O=CCCCC=O [G, glutaraldehyde]
25 mg/L: LOEC [3]
effective at a lower concentration: effectiveness as biocide (inhibits microbial growth) (bacterial inoculum [1]; ALAD diesel fuel) | effectiveness as biocide (inhibits microbial growth) (bacterial inoculum [1]; Fischer-Tropsch diesel fuel)
26 µg/mL: LC50 at 96 h (in vivo; 96 h, control experiment, separate compounds)
25 µg/mL: LC50 at 96 h (in vivo; second experiment, as starting glutaraldehyde concentration, solutions mixed for 48 hours prior to bioassay)
−: Growth, Test Results on Fischer-Tropsch Diesel Fuel (bacterial inoculum [1]; FT Diesel + 1 Wt % biocide, Day 0) | Growth, Test Results on Fischer-Tropsch Diesel Fuel (bacterial inoculum [1]; FT Diesel + 1 Wt % biocide, Day 1) | Growth, Test Results on Fischer-Tropsch Diesel Fuel (bacterial inoculum [1]; FT Diesel + 1 Wt % biocide, Day 5) | Growth, Test Results on Fischer-Tropsch Diesel Fuel (bacterial inoculum [1]; FT Diesel + 1 Wt % biocide, Day 7) | Growth, Test Results on Fischer-Tropsch Diesel Fuel (bacterial inoculum [1]; FT Diesel + 1 Wt % biocide, Day 8) | Growth, Test Results on Fischer-Tropsch Diesel Fuel (bacterial inoculum [1]; FT Diesel + 1 Wt % biocide, Day 19) | Growth, Test Results on Fischer-Tropsch Diesel Fuel (bacterial inoculum [1]; FT Diesel + 100 ppm biocide, Day 0) | Growth, Test Results on Fischer-Tropsch Diesel Fuel (bacterial inoculum [1]; FT Diesel + 100 ppm biocide, Day 1) | Growth, Test Results on Fischer-Tropsch Diesel Fuel (bacterial inoculum [1]; FT Diesel + 100 ppm biocide, Day 5) | Growth, Test Results on Fischer-Tropsch Diesel Fuel (bacterial inoculum [1]; FT Diesel + 100 ppm biocide, Day 7) | Growth, Test Results on Fischer-Tropsch Diesel Fuel (bacterial inoculum [1]; FT Diesel + 100 ppm biocide, Day 8) | Growth, Test Results on ALAD Diesel Fuel (bacterial inoculum [1]; LA Diesel + 1 Wt % biocide, Day 0) | Growth, Test Results on ALAD Diesel Fuel (bacterial inoculum [1]; LA Diesel + 1 Wt % biocide, Day 1) | Growth, Test Results on ALAD Diesel Fuel (bacterial inoculum [1]; LA Diesel + 1 Wt % biocide, Day 5) | Growth, Test Results on ALAD Diesel Fuel (bacterial inoculum [1]; LA Diesel + 1 Wt % biocide, Day 7) | Growth, Test Results on ALAD Diesel Fuel (bacterial inoculum [1]; LA Diesel + 1 Wt % biocide, Day 8) | Growth, Test Results on ALAD Diesel Fuel (bacterial inoculum [1]; LA Diesel + 1 Wt % biocide, Day 19) | Growth, Test Results on ALAD Diesel Fuel (bacterial inoculum [1]; LA Diesel + 100 ppm biocide, Day 0) | Growth, Test Results on ALAD Diesel Fuel (bacterial inoculum [1]; LA Diesel + 100 ppm biocide, Day 1) | Growth, Test Results on ALAD Diesel Fuel (bacterial inoculum [1]; LA Diesel + 100 ppm biocide, Day 5) | Growth, Test Results on ALAD Diesel Fuel (bacterial inoculum [1]; LA Diesel + 100 ppm biocide, Day 7) | Growth, Test Results on ALAD Diesel Fuel (bacterial inoculum [1]; LA Diesel + 100 ppm biocide, Day 8) | Growth, Test Results on ALAD Diesel Fuel (bacterial inoculum [1]; LA Diesel + 100 ppm biocide, Day 19) | Growth, Neutralization of Biocides with MEA (bacterial inoculum [2]; 1 ppm G, Time 0 days) | Growth, Neutralization of Biocides with MEA (bacterial inoculum [2]; 1 ppm G, Time 1 days) | Growth, Neutralization of Biocides with MEA (bacterial inoculum [2]; 1 ppm G, Time 2 days) | Growth, Neutralization of Biocides with MEA (bacterial inoculum [2]; 1 ppm G, Time 3 days) | Growth, Neutralization of Biocides with MEA (bacterial inoculum [2]; 1 ppm G, Time 7 days) | Growth, Neutralization of Biocides with MEA (bacterial inoculum [2]; 10 ppm G, Time 0 days) | Growth, Neutralization of Biocides with MEA (bacterial inoculum [2]; 10 ppm G, Time 1 days) | Growth, Neutralization of Biocides with MEA (bacterial inoculum [2]; 10 ppm G, Time 2 days) | Growth, Neutralization of Biocides with MEA (bacterial inoculum [2]; 10 ppm G, Time 3 days) | Growth, Neutralization of Biocides with MEA (bacterial inoculum [2]; 10 ppm G, Time 7 days) | Growth, Neutralization of Biocides with MEA (bacterial inoculum [2]; 10 ppm G, Time 9 days) | Growth, Neutralization of Biocides with MEA (bacterial inoculum [2]; 10 ppm G, Time 14 days) | Growth, Neutralization of Biocides with MEA (bacterial inoculum [2]; 100 ppm G, Time 0 days) | Growth, Neutralization of Biocides with MEA (bacterial inoculum [2]; 100 ppm G, Time 1 days) | Growth, Neutralization of Biocides with MEA (bacterial inoculum [2]; 100 ppm G, Time 2 days) | Growth, Neutralization of Biocides with MEA (bacterial inoculum [2]; 100 ppm G, Time 3 days) | Growth, Neutralization of Biocides with MEA (bacterial inoculum [2]; 100 ppm G, Time 7 days) | Growth, Neutralization of Biocides with MEA (bacterial inoculum [2]; 100 ppm G, Time 9 days) | Growth, Neutralization of Biocides with MEA (bacterial inoculum [2]; 100 ppm G, Time 14 days)
13 mg/L: NOEC [3]
+: Growth, Test Results on Fischer-Tropsch Diesel Fuel (bacterial inoculum [1]; FT Diesel + 100 ppm biocide, Day 19) | Growth, Neutralization of Biocides with MEA (bacterial inoculum [2]; 1 ppm G, Time 9 days) | Growth, Neutralization of Biocides with MEA (bacterial inoculum [2]; 1 ppm G, Time 14 days)
9 days: onset of microbial growth (delayed from 3 days) (bacterial inoculum [2]; 1 ppm of glutaraldehyde)
more than 14 days: onset of microbial growth (delayed from 3 days) (bacterial inoculum [2]; 10 ppm of glutaraldehyde)
